Results taken from PubChem BioAssay AID256 (DTP/NCI, 2004).
Values joined by “and” are separate entries in the source; they are usually repeats but may differ in a detail not shown here. Equal entries are not always repeated. Inconclusive results and toxic doses are left out. Rule for the calls: active = survival T/C of 150% or more; inactive = T/C below 125% in these data.

Tested on: CD2F1 mice, L1210 leukemia ip, survival T/C
Assay: NCI In Vivo Anticancer Drug Screen. Data for tumor model L1210 Leukemia (intraperitoneal) in CD2F1 (CDF1) mice
Conditions: higher = longer survival
Outline: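 Ratio T/C, where T is the treated-group value and C the vehicle-dosed control value, from mice implanted with a transplantable tumor.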

[1] = endpoint: mean survival time, dose: 100.0 mg/kg/injection, schedule: Q01DX009 (ip), vehicle: saline with Tween-80
[2] = endpoint: mean survival time, dose: 100.0 mg/kg/injection, schedule: Q04DX003 (ip), vehicle: saline with Tween-80
[3] = endpoint: mean survival time, dose: 200.0 mg/kg/injection, schedule: Q01DX009 (ip), vehicle: saline with Tween-80
[4] = endpoint: mean survival time, dose: 400.0 mg/kg/injection, schedule: Q01DX009 (ip), vehicle: saline with Tween-80
[5] = endpoint: mean survival time, dose: 50.0 mg/kg/injection, schedule: Q01DX009 (ip), vehicle: saline with Tween-80
[6] = endpoint: mean survival time, dose: 200.0 mg/kg/injection, schedule: Q04DX003 (ip), vehicle: saline with Tween-80
[7] = endpoint: mean survival time, dose: 400.0 mg/kg/injection, schedule: Q04DX003 (ip), vehicle: saline with Tween-80
[8] = endpoint: mean survival time, dose: 50.0 mg/kg/injection, schedule: Q01DX009 (ip), vehicle: Klucel (hydroxypropylcellulose) (HPC)
[9] = endpoint: mean survival time, dose: 100.0 mg/kg/injection, schedule: Q01DX009 (ip), vehicle: Klucel (hydroxypropylcellulose) (HPC)
[10] = endpoint: mean survival time, dose: 12.5 mg/kg/injection, schedule: Q01DX009 (ip), vehicle: saline with Tween-80
[11] = endpoint: mean survival time, dose: 25.0 mg/kg/injection, schedule: Q01DX009 (ip), vehicle: saline with Tween-80
[12] = endpoint: mean survival time, dose: 6.25 mg/kg/injection, schedule: Q01DX009 (ip), vehicle: saline with Tween-80
[13] = endpoint: mean survival time, dose: 100.0 mg/kg/injection, schedule: Q01DX001 (ip), vehicle: saline with Tween-80
[14] = endpoint: mean survival time, dose: 25.0 mg/kg/injection, schedule: Q04DX003 (ip), vehicle: saline with Tween-80

Measured: T/C

Nc1nc(N)c(N)c(N)n1
inactive: endpoint: mean survival time, dose: 75.0 mg/kg/injection, schedule: Q01DX001 (ip), vehicle: saline with Tween-80 94 % of control | [1] 90 % of control | [2] 98 % of control | endpoint: mean survival time, dose: 150.0 mg/kg/injection, schedule: Q01DX001 (ip), vehicle: saline with Tween-80 101 % of control | [3] 104 % of control | endpoint: mean survival time, dose: 300.0 mg/kg/injection, schedule: Q01DX001 (ip), vehicle: saline with Tween-80 103 % of control | [4] 93 % of control

Cc1ccc(NC(=O)N2CCN(C)CC2)cc1[N+](=O)[O-]
inactive: [5] 94 % of control | [1] 90 % of control | [3] 94 % of control

O=C1NC(=S)S/C1=C\c1ccc(Cl)c(Cl)c1
inactive: [2] 106 % of control | [6] 94 % of control | [7] 97 % of control

Cc1ccc(NC(=O)N(CCCl)N=O)cc1C
active: endpoint: mean survival time, dose: 5.7 mg/kg/injection, schedule: Q01DX001 (ip), vehicle: other 188 % of control | endpoint: mean survival time, dose: 8.6 mg/kg/injection, schedule: Q01DX001 (ip), vehicle: other 190 % of control | endpoint: mean survival time, dose: 13.0 mg/kg/injection, schedule: Q01DX001 (ip), vehicle: other 204 % of control | endpoint: mean survival time, dose: 20.0 mg/kg/injection, schedule: Q01DX001 (ip), vehicle: other 309 % of control | endpoint: mean survival time, dose: 29.0 mg/kg/injection, schedule: Q01DX001 (ip), vehicle: other 191 % of control
inactive: endpoint: mean survival time, dose: 1.6 mg/kg/injection, schedule: Q01DX001 (ip), vehicle: other 115 % of control

Cn1c(CC(O)c2nc3ccccc3n2C)nc2ccccc21 (centres undefined)
inactive: [8] 97 % of control | [9] 101 % of control | endpoint: mean survival time, dose: 200.0 mg/kg/injection, schedule: Q01DX009 (ip), vehicle: Klucel (hydroxypropylcellulose) (HPC) 120 % of control

CCN1/C(=C/c2ccc3ccccc3[n+]2CC)C=Cc2ccccc21
inactive: endpoint: mean survival time, dose: 0.25 mg/kg/injection, schedule: Q01DX001 (ip), vehicle: other 95 % of control | endpoint: mean survival time, dose: 0.5 mg/kg/injection, schedule: Q01DX001 (ip), vehicle: other 97 % of control | endpoint: mean survival time, dose: 1.0 mg/kg/injection, schedule: Q01DX001 (ip), vehicle: other 95 % of control

CN1CC(NC(=O)N(CCCl)N=O)CC2c3cccc4[nH]cc(c34)CC21 (centres undefined)
active: endpoint: mean survival time, dose: 50.0 mg/kg/injection, schedule: Q01DX001 (ip), vehicle: other 154 % of control | endpoint: mean survival time, dose: 100.0 mg/kg/injection, schedule: Q01DX001 (ip), vehicle: other 248 % of control | endpoint: mean survival time, dose: 200.0 mg/kg/injection, schedule: Q01DX001 (ip), vehicle: other 390 % of control
inactive: endpoint: mean survival time, dose: 12.5 mg/kg/injection, schedule: Q01DX001 (ip), vehicle: other 119 % of control | endpoint: mean survival time, dose: 400.0 mg/kg/injection, schedule: Q01DX001 (ip), vehicle: other 98 % of control

O=S(=O)(Cc1ccc(CS(=O)(=O)c2ccc(Cl)cc2)cc1)c1ccc(Cl)cc1
inactive: [10] 91 % of control | [11] 90 % of control | [5] 91 % of control

CCCCCn1c(CN2CCCCC2)nc2c1-c1ccccc1C(=O)C2=O
inactive: [2] 96 % of control | [6] 103 % of control | [7] 103 % of control

FC(F)(F)c1ccc(Cl)c(N=C=S)c1
inactive: endpoint: mean survival time, dose: 100.0 mg/kg/injection, schedule: Q04DX002 (ip), vehicle: saline with Tween-80 104 % of control | endpoint: mean survival time, dose: 200.0 mg/kg/injection, schedule: Q04DX002 (ip), vehicle: saline with Tween-80 93 % of control

Cc1cc(CBr)c(O)c(CBr)c1
inactive: endpoint: mean survival time, dose: 25.0 mg/kg/injection, schedule: Q01DX009 (ip), vehicle: other 101 % of control | endpoint: mean survival time, dose: 50.0 mg/kg/injection, schedule: Q01DX009 (ip), vehicle: other 93 % of control | endpoint: mean survival time, dose: 100.0 mg/kg/injection, schedule: Q01DX009 (ip), vehicle: other 104 % of control

c1ccc(-c2cc(-c3ccccc3)n(-c3ccccc3)c2-c2ccccc2)cc1
inactive: [1] 88 % of control | [3] 94 % of control | [4] 88 % of control

CC1(C)CC(=O)C2=C(C1)OC1(O)CC(C)(C)CC(=O)C1C2c1ccccc1[N+](=O)[O-] (centres undefined)
inactive: endpoint: mean survival time, dose: 3.13 mg/kg/injection, schedule: Q01DX001 (ip), vehicle: saline with Tween-80 103 % of control | endpoint: mean survival time, dose: 3.13 mg/kg/injection, schedule: Q01DX009 (ip), vehicle: saline with Tween-80 100 % of control | endpoint: mean survival time, dose: 6.25 mg/kg/injection, schedule: Q01DX001 (ip), vehicle: saline with Tween-80 90 % of control | [12] 107 % of control | endpoint: mean survival time, dose: 12.5 mg/kg/injection, schedule: Q01DX001 (ip), vehicle: saline with Tween-80 97 % of control | [10] 97 % of control | [13] 87 % of control

COc1ccc([I+]c2ccccc2)cc1
inactive: endpoint: mean survival time, dose: 2.5 mg/kg/injection, schedule: Q01DX009 (ip), vehicle: saline sonified 102 % of control | endpoint: mean survival time, dose: 2.5 mg/kg/injection, schedule: Q04DX003 (ip), vehicle: saline with Tween-80 106 % of control | endpoint: mean survival time, dose: 5.0 mg/kg/injection, schedule: Q01DX009 (ip), vehicle: saline sonified 106 % of control | endpoint: mean survival time, dose: 5.0 mg/kg/injection, schedule: Q04DX003 (ip), vehicle: saline with Tween-80 98 % of control | [12] 95 % of control | endpoint: mean survival time, dose: 6.25 mg/kg/injection, schedule: Q04DX003 (ip), vehicle: saline with Tween-80 93 % of control | endpoint: mean survival time, dose: 10.0 mg/kg/injection, schedule: Q01DX009 (ip), vehicle: saline sonified 95 % of control | endpoint: mean survival time, dose: 10.0 mg/kg/injection, schedule: Q04DX003 (ip), vehicle: saline with Tween-80 104 % of control | [10] 118 % of control | endpoint: mean survival time, dose: 12.5 mg/kg/injection, schedule: Q04DX003 (ip), vehicle: saline with Tween-80 92 % of control | [11] 120 % of control | [14] 104 % of control

Cc1ccc(NC2=NCCS2)c(C)c1
inactive: endpoint: mean survival time, dose: 25.0 mg/kg/injection, schedule: Q01DX001 (ip), vehicle: saline with Tween-80 106 % of control | [11] 89 % of control and 95 % of control | endpoint: mean survival time, dose: 25.0 mg/kg/injection, schedule: Q04DX002 (ip), vehicle: saline with Tween-80 104 % of control and 106 % of control | [14] 101 % of control | endpoint: mean survival time, dose: 50.0 mg/kg/injection, schedule: Q01DX001 (ip), vehicle: saline with Tween-80 106 % of control | [5] 97 % of control and 103 % of control | endpoint: mean survival time, dose: 50.0 mg/kg/injection, schedule: Q04DX002 (ip), vehicle: saline with Tween-80 95 % of control and 110 % of control | endpoint: mean survival time, dose: 50.0 mg/kg/injection, schedule: Q04DX003 (ip), vehicle: saline with Tween-80 98 % of control | [13] 102 % of control | [1] 103 % of control | [2] 96 % of control

CCOC(=O)C(C(=O)OCC)C(=O)c1cccc2c1ccc1ccccc12
inactive: endpoint: mean survival time, dose: 100.0 mg/kg/injection, schedule: Q01DX005 (ip), vehicle: saline with Tween-80 95 % of control | [1] 104 % of control | endpoint: mean survival time, dose: 200.0 mg/kg/injection, schedule: Q01DX005 (ip), vehicle: saline with Tween-80 95 % of control | [3] 93 % of control | endpoint: mean survival time, dose: 400.0 mg/kg/injection, schedule: Q01DX005 (ip), vehicle: saline with Tween-80 95 % of control | [4] 86 % of control

CCCCCCCCCCCCCCCCCCCCCC(CC)CC
inactive: [13] 101 % of control | endpoint: mean survival time, dose: 200.0 mg/kg/injection, schedule: Q01DX001 (ip), vehicle: saline with Tween-80 107 % of control | endpoint: mean survival time, dose: 400.0 mg/kg/injection, schedule: Q01DX001 (ip), vehicle: saline with Tween-80 103 % of control

CCCCN(CCCC)N=O
inactive: endpoint: mean survival time, dose: 25.0 mg/kg/injection, schedule: Q01DX009 (ip), vehicle: Klucel (hydroxypropylcellulose) (HPC) 96 % of control | [8] 90 % of control | [9] 98 % of control

O=C(Nc1cccc(F)c1)c1c(O)[nH]c(=S)[nH]c1=O
active: endpoint: median survival time, dose: 200.0 mg/kg/injection, schedule: Q01DX009 (ip), vehicle: saline with Tween-80 155 % of control
inactive: endpoint: median survival time, dose: 25.0 mg/kg/injection, schedule: Q01DX009 (ip), vehicle: saline with Tween-80 114 % of control and 106 % of control | endpoint: median survival time, dose: 50.0 mg/kg/injection, schedule: Q01DX009 (ip), vehicle: saline with Tween-80 113 % of control and 114 % of control | endpoint: median survival time, dose: 100.0 mg/kg/injection, schedule: Q01DX009 (ip), vehicle: saline with Tween-80 117 % of control

Cc1cn(C2CC3O[P@](=S)(Nc4ccccc4)OCC3O2)c(=O)[nH]c1=O (some centres undefined)
inactive: endpoint: median survival time, dose: 12.75 mg/kg/injection, schedule: Q01DX005 (ip), vehicle: saline with Tween-80 100 % of control | endpoint: median survival time, dose: 25.5 mg/kg/injection, schedule: Q01DX005 (ip), vehicle: saline with Tween-80 100 % of control | endpoint: median survival time, dose: 51.0 mg/kg/injection, schedule: Q01DX005 (ip), vehicle: saline with Tween-80 100 % of control | endpoint: median survival time, dose: 102.0 mg/kg/injection, schedule: Q01DX005 (ip), vehicle: saline with Tween-80 93 % of control
